Row | SMILES | melting point
1 | CCCCCC(=O)OCC | -67 °C
2 | Cn1nc([N+](=O)[O-])c2c(=O)cc[nH]c21 | 222 to 224 °C
3 | C=CCC1(C(C)CC)C(=O)NC(=O)NC1=O (centres undefined) | 109 °C
4 | O=C(Nc1ccccc1/C=C/c1ccccc1)c1ccccc1 | 168 °C
5 | CC(=NNc1ccccc1)C(=O)c1cc(C(=O)C(C)=NNc2ccccc2)c([N+](=O)[O-])cc1[N+](=O)[O-] | 234 °C
6 | CCC(C)Cl (centres undefined) | -140 °C
7 | CCCCCCCCCCCCCCCCCC1CCCCC1 | 38 °C
8 | CCOC(=O)c1c(N)sc2c1CCCC2 | 116 °C
9 | CCCCCCCCOC(=O)c1ccccc1C(=O)OCCCCCCCC(C)C | 98 °C
10 | CN(C)CCCC1(c2ccc(F)cc2)OCc2cc(C#N)ccc21 (centres undefined) | 182 °C
11 | O=Cc1ccc(N2CCCC2)cn1 | 101 to 102 °C
12 | O=C(O)c1cc(F)cc(Br)c1 | 143 °C
13 | Cc1cc(Cl)ccc1N | 30.3 °C
14 | CSC(SC)=C(C#N)C(=O)c1cccc(C)c1 | 53 to 55 °C
15 | CCCN(CCC)c1c([N+](=O)[O-])cc(C(F)(F)F)cc1[N+](=O)[O-] | 49 °C
16 | CN1CCc2cc3c(cc2C(=O)Cc2ccc4c(c2C1)OCO4)OCO3 | 208 °C
17 | COc1ccccc1C(=O)c1cc2c(cc1Br)OCCO2 | 95 to 97 °C
18 | O=C(C=Cc1ccsc1)c1ccccc1 | 88 °C
19 | O=C(NC(=O)c1c(F)cccc1F)Nc1ccc(Cl)cc1 | 239 °C
20 | CCCCCCCC(=O)OCC(COC(=O)CCCCCCC)OC(=O)CCCCCCC | 10 °C
21 | CCc1cccc(O)c1 | -4 °C
22 | COc1cccc(OCC(=O)O)c1 | 118 °C
23 | O=C=NS(=O)(=O)Cl | -44 °C
24 | CCOC(=O)Nc1c([N+](=O)[O-])cc(C)cc1[N+](=O)[O-] | 65 °C

Row | SMILES | melting point
25 | O=[N+]([O-])c1ccc(C=NO)o1 | 163 °C
26 | O=C(F)c1ccccc1 | -28 °C
27 | OCCOc1ccc(OCCO)cc1 | 104 to 107 °C
28 | ClC1=C(Cl)C2(Cl)C(CBr)CC1(Cl)C2(Cl)Cl (centres undefined) | 77 °C
29 | CC(C)(C)OC(=O)Nc1ccco1 | 98 to 100 °C
30 | CCOC(=O)c1c(C)cc(O)cc1O | 132 °C
31 | C=C1c2cc(OC)c(OC)cc2CCN1C(C)=O | 107 to 109 °C
32 | Oc1cc(Cl)cnc1O | 295 °C
33 | CC12CCC(=O)C3OC31CC(C1(O)CCC3(C)C(=O)CCC34OC14)C2=O (centres undefined) | 182 °C
34 | CC12CCC(C(=CNC(N)=O)C1=O)C2(C)C (centres undefined) | 197 °C
35 | CCCCCCCCCCCCCCC(C)CC (centres undefined) | -6 °C
36 | CC(=O)c1ccc(Cl)c([N+](=O)[O-])c1 | 98 °C
37 | CCNc1ccc2ccccc2c1N=Nc1ccc(N=Nc2ccccc2)cc1 | 130 °C
38 | N#Cc1c(Cl)c(Cl)c(Cl)c(C#N)c1Cl | 252 °C
39 | O=C(Cl)c1cc(-c2ccc(Cl)cc2)oc1C(F)(F)F | 135 to 137 °C
40 | FCF | -136 °C
41 | N#C/C(=C/c1ccc(Cl)cc1)c1nc(-c2ccccc2)cs1 | 103 to 105 °C
42 | Nc1ccc(-c2ccccc2N)cc1 | 54.5 °C
43 | Cc1ccc(C)n1-c1ccccc1C(=O)O | 125 °C
44 | COC(=O)C12ON1c1ccccc1C2=O (centres undefined) | 221 °C
45 | Cc1cc(C(=O)O)ccc1F | 167 °C
46 | S=C(SC(=S)N1CCCCC1)N1CCCCC1 | 110 °C
47 | Nc1ccccc1C(=O)Nc1ccccc1 | 132 °C
48 | COc1cc2nnc(/C=C/C(C)=O)c(-c3ccc(C)o3)c2cc1OC | 209 to 210 °C

Row | SMILES | melting point
49 | CCCCCOC(=O)CCCCC | -47 °C
50 | COc1ccc(C#N)c(OC)c1OC | 56 °C
51 | COc1cc2c(cc1OC)C(C(=O)O)C2 (centres undefined) | 134 to 143 °C
52 | CC1=C(C)C(=O)C(C)=C(C)C1=O | 112 °C
53 | COc1ccc(C(C(=O)NCc2ccccc2)N(Cc2ccc(C)o2)C(=O)CNC(=O)OC(C)(C)C)cc1OC (centres undefined) | 177 °C
54 | CSC(=NOC(=O)N(C)C=C1C=NC=N1)C(=O)N(C)C | 252 °C
55 | O=C(Nc1ccc([N+](=O)[O-])cc1Cl)C1(F)C(F)(F)C(F)(F)C(F)(F)C(F)(F)C1(F)F | 93 °C
56 | CCCCCCC(O)C1C2=C(CC(C(O)C3CC=CC(=O)O3)CC3=C(C(=O)OC3=O)C1O)C(=O)OC2=O (centres undefined) | 170 °C
57 | COc1cc(-c2ccccc2)c(C)cc1N | 65 to 67 °C
58 | O=C1C=CC(=O)N1c1ccc(Nc2ccccc2)c2ccccc12 | 207 °C
59 | O=C(CBr)OCc1ccc([N+](=O)[O-])cc1 | 50 °C
60 | c1cncc(C2CCCCN2)c1 (centres undefined) | 9 °C
61 | [N-]=[N+]=Nc1ccc(Br)cc1 | 20 °C
62 | CC(C)CC(N)P(=O)(O)O (centres undefined) | 274 to 280 °C
63 | C=CCc1ccccc1O | -6 °C
64 | COc1ccc2[nH]cc(CCNC(C)=O)c2c1 | 117 °C
65 | Cc1ccc(OP(=O)(Oc2ccc(C)cc2)Oc2ccc(C)cc2)cc1 | 77.5 °C
66 | CCOC(=O)CSc1c(C)[nH]c2ccccc12 | 72 to 75 °C
67 | CCF | -143 °C
68 | O=[N+]([O-])c1cccc(Oc2ccccn2)c1 | 93 to 95 °C
69 | NC(=S)Cn1cnc(Cl)c1Cl | 204 to 207 °C
70 | C/C(=N/NC(N)=O)C(=O)Nc1ccccc1 | 236 to 238 °C
71 | CC(Nc1ccccn1)=C(C#N)C(=O)c1ccccc1 | 151 to 152 °C

Further lines, results first:

Row | melting point | SMILES
72 | 120 to 124 °C | NC(=S)c1cccc(I)c1
73 | 143 °C | CCCCCCCCC(NC(=O)OCC1c2ccccc2-c2ccccc21)C(=O)O (centres undefined)
74 | -20 °C | CCCCc1ccccc1O
75 | 69 °C | COC(=O)c1cccc([N+](=O)[O-])c1C(=O)OC
76 | 218 °C | CCCCC(=O)OC1(C(=O)CO)CCC2C3CCC4=CC(=O)CCC4(C)C3C(O)CC21C (centres undefined)
77 | 103 °C | CC(=O)C(=CNc1ccc(C)cc1)Cc1ccccc1
78 | 151 °C | N#Cc1ccc(CC(=O)O)cc1
79 | 214 °C | CN1C(CSCC(F)(F)F)Nc2cc(Cl)c(S(N)(=O)=O)cc2S1(=O)=O (centres undefined)
80 | -43.5 °C | Clc1ccncc1
81 | -54 °C | CCCC(C)(C)C(C)(C)C
82 | 85 to 88 °C | O=[N+]([O-])c1ccc2c(c1)OCCOCCOCCOCCOCCO2
83 | 52 °C | O=[N+]([O-])c1ccc(OS(=O)(=O)C(F)(F)F)cc1
84 | 156 °C | O=C(N[C@@H](Cc1cccc(F)c1)C(=O)O)OCC1c2ccccc2-c2ccccc21
85 | 231 °C | N#CC1=C(N)OC2(C(=O)Nc3ccccc32)C2=C1CCCC2 (centres undefined)
86 | 177 °C | CSC(=Nc1ccccc1)C(C#N)=C(N)SC
87 | 103 to 105 °C | CCCCCCCNC(=O)OCC1OC(OC)C(O)C(O)C1O (centres undefined)
88 | 85.3 °C | Cc1cc(O)c(C)c(C)c1C
89 | 174 °C | c1ccc(CC2=NCCN2)cc1
90 | 167 °C | CCOC(=O)/C(C#N)=C/c1ccc(-c2ccc(Br)cc2)o1
91 | -100 °C | CC/C=C/Br

Row | melting point | SMILES
92 | -98 °C | CCCCC/C=C\Br
93 | 145 to 147 °C | CC(C)(C)OC(=O)N1CCSCC1C(=O)O (centres undefined)
94 | 137 to 142 °C | Cc1nc(C(F)(F)F)ccc1C(=O)O
95 | -101 °C | CC1CCCS1 (centres undefined)
96 | 12 °C | O=C(O)CC1CCCC1
97 | 70 °C | O=[N+]([O-])c1cc(Cl)ccc1Br
98 | 132 °C | CC(=O)Oc1ccccc1C(=O)OCC(=O)N(C)CC(N)=O
99 | 176 °C | COC(=O)c1c(Cl)nn(C)c1S(=O)(=O)NC(=O)Nc1nc(OC)cc(OC)n1
100 | -5 °C | C#CCCCCCCCCCCC
101 | 95 °C | CC1(C)C(=O)OC2=C(CCCC2)C1c1ccccc1 (centres undefined)
102 | 157 °C | N#CCCN(CCO)c1ccc(N=Nc2ccc([N+](=O)[O-])cc2Cl)cc1
103 | 154 to 156 °C | Nc1cc2ccccc2cn1
104 | 181 to 183 °C | NC(=S)NC(N)=S
105 | 248 to 255 °C | CC(C)C(C)(N)P(=O)(O)O (centres undefined)
106 | 176 to 178 °C | O=C(O)c1cccnc1Cl
107 | 98 to 100 °C | FC(F)(F)c1cc(Cl)c2cc(Br)ccc2n1
108 | 308 to 310 °C | O=C1C(C(Br)C2(Br)C(=O)N(c3ccccc3)N=C2c2ccc([N+](=O)[O-])cc2)C(c2ccc([N+](=O)[O-])cc2)=NN1c1ccccc1 (centres undefined)
109 | 173 to 175 °C | Nc1c(Br)cccc1C(=O)O
110 | 72 to 74 °C | Cc1nc(-c2cccc(N=C=O)c2)no1
111 | 13.7 °C | CCCCCCCCCCCCCC(CCCCCCCCCCCC)CCCCCCCCCCCC

Row | melting point | SMILES
112 | 47.5 °C | Cc1ccc(SSc2ccc(C)cc2)cc1
113 | 129 to 131 °C | COC(=O)c1sc(Br)c(Br)c1O
114 | 176 °C | OCC1OC(OC2C(CO)OC(O)(CO)C2O)C(O)C(O)C1O (centres undefined)
115 | 60 to 62 °C | CCCCCCCCc1ccc(/N=N/c2ccc(OC(=O)CC)cc2)cc1
116 | 185 °C | O=C1C(c2ccccc2)=Nc2cc([N+](=O)[O-])ccc21
117 | 49.5 °C | CCOC=C(C#N)C(=O)OCC
118 | > 330 °C | N=C1C=C(NC(=O)c2ccccc2)/C(=N/C(=O)c2ccccc2)C=C1NC(=O)c1ccccc1
119 | 79 to 82 °C | COC(=O)c1ccc(C#Cc2ccccc2)o1
120 | 53 to 54 °C | Brc1ccc2ncsc2c1
121 | -94 °C | FC(F)(Cl)C(F)(F)Cl
122 | 38 °C | NCCCCCCCCCN
123 | 228 °C | CCn1cc(C(=O)O)c(=O)c2cc(F)c(N3CCNCC3)cc21
124 | 209 °C | C=C1C(=O)C23C4CC5C(C)(C=O)CCCC5(C(=O)O4)C2C(OC(C)=O)CC1C3O (centres undefined)
125 | 246 °C | Cc1cc(C(F)(F)F)n2nc(N)c(/N=N/c3ccc4ccccc4c3)c2n1
126 | 133 °C | O=C(Cc1cc(Cl)c([N+](=O)[O-])cc1[N+](=O)[O-])c1ccccc1
127 | 142 to 144 °C | Cn1nc(C(=O)O)cc1-c1ccco1
128 | 151 to 152 °C | CC(=O)Nc1ccccc1-c1cc2ccccc2[nH]1
129 | 166 °C | O=C(O)CC(CC(=O)O)C(=O)O
